Laboratory results: ChEMBL document CHEMBL3045805, “Synthesis, characterization, and antimicrobial activity of some new coumarin derivatives” (Med Chem Res, 2012)
Converted amounts (≈) assume the structure as drawn.

What was measured:
Staphylococcus aureus [1] = experiment: Antibacterial activity against Staphylococcus aureus at 1 ug/ml after 24 hr by agar diffusion method; conditions: read-out: DIZ
Klebsiella pneumoniae [2] = experiment: Antibacterial activity against Klebsiella pneumoniae at 1 ug/ml after 24 hr by agar diffusion method; conditions: read-out: DIZ
Staphylococcus aureus [3] = experiment: Antibacterial activity against Staphylococcus aureus after 24 hr; assay type: functional
Klebsiella pneumoniae [4] = experiment: Antibacterial activity against Klebsiella pneumoniae after 24 hr; assay type: functional
Escherichia coli [5] = experiment: Antibacterial activity against Escherichia coli after 24 hr; assay type: functional
Staphylococcus aureus [6] = experiment: Antibacterial activity against Staphylococcus aureus at 50 ug/ml after 24 hr by agar diffusion method; assay type: functional; conditions: read-out: DIZ
Escherichia coli [7] = experiment: Antibacterial activity against Escherichia coli at 50 ug/ml after 24 hr by agar diffusion method; assay type: functional; conditions: read-out: DIZ
Klebsiella pneumoniae [8] = experiment: Antibacterial activity against Klebsiella pneumoniae at 50 ug/ml after 24 hr by agar diffusion method; assay type: functional; conditions: read-out: DIZ

| SMILES | zone of inhibition at 1 µg/mL (Staphylococcus aureus [1]) [mm] | zone of inhibition at 1 µg/mL (Klebsiella pneumoniae [2]) [mm] | MIC (Staphylococcus aureus [3]) [µg/mL] | MIC (Klebsiella pneumoniae [4]) [µg/mL] | MIC (Escherichia coli [5]) [µg/mL] | zone of inhibition at 50 µg/mL (Staphylococcus aureus [6]) [mm] | zone of inhibition at 50 µg/mL (Escherichia coli [7]) [mm] | zone of inhibition at 50 µg/mL (Klebsiella pneumoniae [8]) [mm] |
| --- | --- | --- | --- | --- | --- | --- | --- | --- |
| O=C(O)c1cn(C2CC2)c2cc(N3CCNCC3)c(F)cc2c1=O [CIPROFLOXACIN] | 24 | 20 | 0.6 (≈ 1.81 µM) | 1.3 (≈ 3.92 µM) | 0.6 (≈ 1.81 µM) |  |  |  |
| Cc1cc(=O)oc2cc(OCC(=O)NNS(=O)(=O)c3ccc(Cl)cc3)ccc12 |  |  | > 100 | 27.7 (≈ 65.5 µM) | 55.3 (≈ 131 µM) | 9 | 12 | 10 |
| Cc1cc(=O)oc2cc(OCC(=O)NNS(=O)(=O)c3ccc(Br)cc3)ccc12 |  |  | 85.1 (≈ 182 µM) | 42.6 (≈ 91.2 µM) | 42.6 (≈ 91.2 µM) | 14 | 12 | 11 |
| COc1ccc2c(CNc3ccc4c(C)cc(=O)oc4c3)cc(=O)oc2c1 |  |  | 91.9 (≈ 253 µM) | 22.9 (≈ 63 µM) | 45.9 (≈ 126 µM) | 10 | 12 | 20 |
| Cc1cc(=O)oc2cc(OCC(=O)NNS(=O)(=O)c3ccc(C(F)(F)F)cc3)ccc12 |  |  | 89.1 (≈ 195 µM) | 44.5 (≈ 97.5 µM) | 44.5 (≈ 97.5 µM) | 11 | 13 | 15 |
| CCOC(=O)c1oc2cc(OC)ccc2c1CNc1ccc2c(C)cc(=O)oc2c1 |  |  | > 100 | 25.8 (≈ 63.3 µM) | 51.6 (≈ 127 µM) | 11 | 11 | 14 |
| COc1ccc2c(CNc3ccc4c(C)cc(=O)oc4c3)c(Br)c(=O)oc2c1 |  |  | 92.8 (≈ 210 µM) | 46.4 (≈ 105 µM) | 46.4 (≈ 105 µM) | 10 | 11 | 14 |
| Cc1ccc(S(=O)(=O)NNC(=O)COc2ccc3c(C)cc(=O)oc3c2)cc1 |  |  | 98.4 (≈ 245 µM) | 49.2 (≈ 122 µM) | 98.4 (≈ 245 µM) | 10 | 11 | 10 |
| Cc1cc(=O)oc2cc(OCC(=O)NNc3ccnc4c(Cl)cccc34)ccc12 |  |  | > 100 | 57.8 (≈ 141 µM) | 28.9 (≈ 70.5 µM) | 10 | 13 | 13 |
| Cc1cc(=O)oc2cc(OCC(=O)NNS(=O)(=O)c3ccc(F)cc3)ccc12 |  |  | 96.6 (≈ 238 µM) | 48.3 (≈ 119 µM) | 24.1 (≈ 59.3 µM) | 9 | 12 | 12 |
| Cc1cc(=O)oc2cc(OCC(=O)NNS(=O)(=O)c3cccc([N+](=O)[O-])c3)ccc12 |  |  | > 100 | 52 (≈ 120 µM) | 26 (≈ 60 µM) | 10 | 13 | 14 |
